From patent publication US20210371385A1, “POLYMORPHIC AND AMORPHOUS FORMS OF ISOQUINOLINONE AND METHODS OF USE THEREOF” (Sojournix, Inc., priority 2018, published 2021)
Converted amounts (≈) assume the structure as drawn. Where two headings read alike, the source gives them in different places.

Key:
[1] = Log P/D7.4 by shake flask method, octanol-buffer; assay type: physicochemical; conditions: pH 7.4, octanol-buffer two phase system
Procedure: The Log P/D7.4 value was determined by the shake flask method in an octanol-buffer two phase systems.

[2] = Chemical stability (oxygen, pH, light, PEG 400); assay type: physicochemical
[3] = Solubility by gravimetric method in 14 solvents; assay type: physicochemical; conditions: for solubility at 2 days: organic solvent or mixture, thermodynamic from solid; for Solubility: Water:DMSO (9:1 vol)
Procedure: Solubility measurements were done by gravimetric method in 14 different solvents at two temperatures (23° C. and 50° C.). About 25-35 mg solid was dispensed in 2 mL vials and 0.75 mL solvent was added to form a slurry. The slurries were then stirred for two days. The vials were centrifuged and the supernatant was collected for solubility measurement by gravimetric method.

[4] = Maximal absorbable dose (MAD) calculation; parameters: species or system humans
Procedure: The maximal absorbable dose (MAD) of SJB-01, as described by Curatolo (1998), can be calculated according to the following equation: […]
Using this equation, the maximal absorbable dose is 16 mg for SJB-01.

[5] = Log P/D determination, pH-metric titration with 1-octanol; assay type: physicochemical
Procedure: Log P and log D were determined for SJB-01 free base using 1-octanol as the partition solvent (Table 2). Log P was experimentally determined to be 4.73 which is larger than the predicted value for the structure, the corresponding Bjerrum plot is shown in FIG. 6. A log D profile (FIG. 5) was constructed for SJB-01 based on the distribution of the API at a particular pH.
(§1) pKa and log P/D data were collected using Pion PULSE Attain software. The Pion PULSE solutions consisted of using ionic strength adjusted water (0.15 M KCl), 0.5 M HCl and […] which were used for all titrations. Purge gas (argon) was used for HEPES (probe validation), KHP (KOH concentration determination), aqueous potentiometric and log P/D potentiometric titrations.
(§2) The Pion PULSE was equipped with an overhead variable speed stirrer, double junction Ag/AgCl pH probe, UV probe with a 1 cm pathlength, Carl-Zeiss spectrophotometer with 256-bit photodiode array, and a temperature probe. The pH of the instrument can range from 1.8-12.2. The compatible co-solvents are MeOH, EtOH, ACN, DMSO and 1,4-dioxane. pKa measurements were completed by either potentiometric or UV-metric methods. log P/D was measured using water saturated 1-octanol as the partitioning solvent. Data was refined using the Pion PULSE refine software.

[6] = Intrinsic Dissolution Rate (IDR); assay type: physicochemical; conditions: FeSSIF media, presence of bile components
Procedure: The Intrinsic Dissolution Rate (IDR) was calculated for a beta polymorph form of SJB-01. A tablet of the compound was pressed and put into a dissolution chamber. It was subsequently measured how fast the substance was dissolved from the surface into the solvent. Initially, the experiment was performed in a standard buffer (0.001 M HCl pH 3.0), reflecting the stomach conditions at fastened state.
Due to the high impact of bile components on solubilisation of SJB-01, IDR was performed in FeSSIF media, reflecting the fed-state in humans.

[7] = pKa measured by titration (Example 3); assay type: physicochemical; conditions: measurable detection limit of 2
Procedure: The pKa value was measured by titration.

[8] = Absorption of solid compound dosed orally in rats; assay type: in vivo, Sprague Dawley rats; conditions: for bioavailability: Sprague Dawley, rat, in vivo, oral microsuspension, read-out: Absolute bioavailability
Procedure: The possibility of dosing SJB-01 orally as a solid was explored in rats, as a means to evaluate the developability of the compound. Clinical relevant doses (1, 5 and 10 mg/kg) were administered to rats as microsuspensions. Furthermore, to explore the role of particle size, a suspension (5 mg/kg) was administered as well for comparison.

[9] = pKa determination, co-solvent potentiometric titration (Yasuda-Shedlovsky extrapolation); assay type: physicochemical; conditions: 25.4 °C, MeOH co-solvent potentiometric, extrapolated to 0% co-solvent
Procedure: pKa determination and assignment was completed on SJB-01 (FIG. 1). About 2 mg of SJB-01 (100142-1-1) was titrated three times with varying concentrations of MeOH as co-solvent to generate a Yasuda-Shedlovsky plot (L100142-65-4, FIG. 2 and Table 1). Extrapolation of the Yasuda-Shedlovsky plot to 0% co-solvent determined the pKa's (FIG. 3), which are acidic 5.76, basic 3.03. Acidic pKa is in red and basic pKa is in blue.
as §1, §2

CCNn1c(C)c(C(=O)N[C@H](c2ccccc2)C2CC2)c2cccc(F)c2c1=O [SJB-01, 2-Ethylamino-8-fluoro-3-methyl-1-oxo-1,2-dihydro-isoquinoline-4-carboxylic acid ((S)-cyclopropyl-phenyl-methyl)-amide]
logP [1]: 3.3 | Time stable in PEG 400 ([2]; PEG 400, room temperature, covered from light): at least 4 months | Compound decomposed ([2]; aqueous solution, extreme light exposure, 24 hr): 100% | Stability to oxygen and pH ([2]; exposed to oxygen and pH 2, 4, 6, and 7.4): stable | Compound left ([2]; solid compound, extreme light exposure, 24 hr): ~86% | solubility at 2 days ([3]; ACN, 23 °C): 62 mg/mL (≈ 158 mM) | solubility at 2 days ([3]; ACN, 50 °C): 99 mg/mL (≈ 252 mM) | solubility at 2 days ([3]; EtOAc, 23 °C): 42 mg/mL (≈ 107 mM) | solubility at 2 days ([3]; EtOAc, 50 °C): 67 mg/mL (≈ 170 mM) | solubility at 2 days ([3]; EtOH, 23 °C): > 42 mg/mL | solubility at 2 days ([3]; IPA:water (85:15 vol), 23 °C): 27 mg/mL (≈ 68.6 mM) | solubility at 2 days ([3]; IPA:water (85:15 vol), 50 °C): 60 mg/mL (≈ 152 mM) | solubility at 2 days ([3]; IPAc, 23 °C): 22 mg/mL (≈ 55.9 mM) | solubility at 2 days ([3]; IPAc, 50 °C): 37 mg/mL (≈ 94 mM) | solubility at 2 days ([3]; MIBK, 23 °C): 40 mg/mL (≈ 102 mM) | solubility at 2 days ([3]; MIBK, 50 °C): 61 mg/mL (≈ 155 mM) | solubility at 2 days ([3]; MtBE, 23 °C): 8 mg/mL (≈ 20.3 mM) | solubility at 2 days ([3]; MtBE, 50 °C): 11 mg/mL (≈ 28 mM) | solubility at 2 days ([3]; THF, 23 °C): > 68 mg/mL | solubility at 2 days ([3]; THF, 50 °C): > 68 mg/mL | Solubility ([3]; 23 °C): Nil | Solubility ([3]; 50 °C): Nil | solubility at 2 days ([3]; acetic acid, 23 °C): > 72 mg/mL | solubility at 2 days ([3]; acetic acid, 50 °C): > 72 mg/mL | solubility at 2 days ([3]; acetone, 23 °C): > 67 mg/mL | solubility at 2 days ([3]; acetone, 50 °C): > 67 mg/mL | solubility at 2 days ([3]; dioxane, 23 °C): > 74 mg/mL | solubility at 2 days ([3]; dioxane, 50 °C): > 74 mg/mL | solubility at 2 days ([3]; ethanol, EtOH, 50 °C): > 42 mg/mL | solubility at 2 days ([3]; isopropanol (IPA), IPA, 23 °C): 29 mg/mL (≈ 73.7 mM) | solubility at 2 days ([3]; isopropanol (IPA), IPA, 50 °C): 64 mg/mL (≈ 163 mM) | solubility at 2 days ([3]; MeOH, 23 °C, lot L100142-1-1): > 76 mg/mL | solubility at 2 days ([3]; MeOH, 50 °C, lot L100142-1-1): > 76 mg/mL | Maximal absorbable dose (MAD) ([4]; MAD=S*Ka*SIWV*SITT, S solubility at pH 6.5): 16 mg | Maximal absorbable dose (MAD) ([4]; humans, solubility in 0.001M HCl pH 3.0, data from the β-form): 16 mg | Maximal absorbable dose (MAD) ([4]; humans, solubility in FaSSIF, data from the β-form): 22 mg | Maximal absorbable dose (MAD) ([4]; humans, solubility in FeSSIF (fed state), data from the β-form): 38 mg | logD ([5]; 1-octanol/water, pH 7.4, pH 7.40, 1-octanol, from log D profile, read-out: log D7.40): 3.04 | logP ([5]; neutral species, 1-octanol:water, 25.3 °C, pH-metric, three titrations): 4.73 ± 0.14 | IDR in FeSSIF media versus standard buffer [6]: not further increased | pKa [7]: < 2 | bioavailability ([8]; 10 mg/kg): ~30% | bioavailability ([8]; 1 and 5 mg/kg): ~20% | Bioavailability, comparison of particle size ([8]; oral, 5 mg/kg, particle size 10 and 50 μm): no differences in bioavailability | pKa (acidic) ([9]; acidic): 5.76 | pKa ([9]; acidic, read-out: pKa (acidic)): 5.83 ± 0.11 | pKa ([9]; basic, read-out: pKa (basic)): 3.03 ± 0.11
